{
  "source": "patent US4386075A",
  "about": "“Renally active tetrapeptides” (SmithKline Beckman Corporation, priority 1982, dated 1983)",
  "key": {"toad bladder": {"tested_on": "toad bladder", "conditions": "toad bladder test"}, "anesthetized dogs": {"tested_on": "anesthetized dogs", "test": "anesthetized dog infusion test (MAP, RBF, RVR, HR)", "format": "in vivo", "conditions": "for % change HR (heart rate) / % change MAP (mean arterial blood pressure) / % change RBF (renal blood flow) / % change RVR (renal vascular resistance): 1 dog", "text": "In the anesthetized dog protocol discussed above this compound gave the following data: […]"}, "[1]": {"conditions": "secondary test"}, "[2]": {"tested_on": "spontaneously hypertensive rat", "conditions": "in vivo"}, "[3]": {"conditions": "300 μg/kg/min, anesthetized dog, cumulative effects"}},
  "data": [
    {"molecule": "4-(4-hydroxyphenyl)-butyryl-L-propyl-D,L-α-methylphenylalanyl-glycyl-L-proline [Example 2]", "values": [
      {"measurement": "reversal of antidiuretic hormone activity", "setting": "toad bladder", "value": "inactive"},
      {"measurement": "% change HR (heart rate)", "setting": "anesthetized dogs; infusion 3 μg/kg/min", "value": 6, "unit": "%"},
      {"measurement": "% change MAP (mean arterial blood pressure)", "setting": "anesthetized dogs; infusion 3 μg/kg/min", "value": -5, "unit": "%"},
      {"measurement": "% change RBF (renal blood flow)", "setting": "anesthetized dogs; infusion 3 μg/kg/min", "value": 17, "unit": "%"},
      {"measurement": "% change RVR (renal vascular resistance)", "setting": "anesthetized dogs; infusion 3 μg/kg/min", "value": -18, "unit": "%"},
      {"measurement": "% change HR (heart rate)", "setting": "anesthetized dogs; infusion 30 μg/kg/min", "value": 10, "unit": "%"},
      {"measurement": "% change MAP (mean arterial blood pressure)", "setting": "anesthetized dogs; infusion 30 μg/kg/min", "value": -9, "unit": "%"},
      {"measurement": "% change RBF (renal blood flow)", "setting": "anesthetized dogs; infusion 30 μg/kg/min", "value": 16, "unit": "%"},
      {"measurement": "% change RVR (renal vascular resistance)", "setting": "anesthetized dogs; infusion 30 μg/kg/min", "value": -21, "unit": "%"},
      {"measurement": "% change HR (heart rate)", "setting": "anesthetized dogs; infusion 300 μg/kg/min", "value": 6, "unit": "%"},
      {"measurement": "% change MAP (mean arterial blood pressure)", "setting": "anesthetized dogs; infusion 300 μg/kg/min", "value": -6, "unit": "%"},
      {"measurement": "% change RBF (renal blood flow)", "setting": "anesthetized dogs; infusion 300 μg/kg/min", "value": 14, "unit": "%"},
      {"measurement": "% change RVR (renal vascular resistance)", "setting": "anesthetized dogs; infusion 300 μg/kg/min", "value": -17, "unit": "%"},
      {"measurement": "renal blood flow, cumulative effect", "setting": "anesthetized dogs; measured after the normal period of the test, increased from 127 ml/min", "value": 162, "unit": "mL/min"},
      {"measurement": "cardiac rate (HR), cumulative effect", "setting": "anesthetized dogs; measured after the normal period of the test, predrug level 140 BPM", "value": 105, "unit": "BPM"},
      {"measurement": "ED15", "setting": "[1]", "value": 1.9, "unit": "µg/kg"},
      {"measurement": "activity in spontaneously hypertensive rat protocol", "setting": "[2]", "value": "not active"},
      {"measurement": "diuresis in spontaneously hypertensive rat protocol", "setting": "[2]", "value": "slight water diuresis"}
    ]},
    {"molecule": "NCCc1ccc(O)c(O)c1", "note": "[Dopamine, reference compound]", "values": [
      {"measurement": "ED15", "setting": "anesthetized dogs; dog test procedure", "value": "about 3 mcg/kg/min"},
      {"measurement": "% change HR (heart rate)", "setting": "anesthetized dogs; infusion 3 μg/kg/min", "value": 2, "unit": "%"},
      {"measurement": "% change MAP (mean arterial blood pressure)", "setting": "anesthetized dogs; infusion 3 μg/kg/min", "value": -16, "unit": "%"},
      {"measurement": "% change RBF (renal blood flow)", "setting": "anesthetized dogs; infusion 3 μg/kg/min", "value": 28, "unit": "%"},
      {"measurement": "% change RVR (renal vascular resistance)", "setting": "anesthetized dogs; infusion 3 μg/kg/min", "value": -34, "unit": "%"},
      {"measurement": "ED15", "setting": "[1]", "value": 3.5, "unit": "µg/kg"}
    ]},
    {"molecule": "N-4-(4-hydroxyphenyl)-butyryl-L-prolyl-D-phenylalanyl-glycyl-L-proline [Example 3]", "values": [
      {"measurement": "cumulative effect HR", "setting": "anesthetized dogs; [3]", "value": -8},
      {"measurement": "cumulative effect MAP", "setting": "anesthetized dogs; [3]", "value": 0},
      {"measurement": "cumulative effect RBF", "setting": "anesthetized dogs; [3]", "value": "+22"},
      {"measurement": "cumulative effect RVR", "setting": "anesthetized dogs; [3]", "value": -18}
    ]}
  ]
}
